Assay results reported in ChEMBL document CHEMBL2046438, “Indole alkaloids from Geissospermum reticulatum” (J Nat Prod, 2012).
≈ marks a conversion by molar mass, not a printed value. Calls of active or inactive are those of the source. No cut-off for these calls is given here.

Legend:
[1] = system: Leishmania infantum; experiment: Leishmanicidal activity against promastigote form of Leishmania infantum PB75 after 48 hrs by modified colorimetric method; assay type: functional; settings: PB75, 48 h
[2] = Cytotoxicity against CHO cells assessed as cell viability after 48 hrs by MTT colorimetric assay; assay type: cell-based, Cricetulus griseus; settings: chinese hamster
[3] = system: Trypanosoma cruzi; experiment: Antitrypanosomal activity against epimastigote form of Trypanosoma cruzi Y at 1 to 100 ug/ml after 72 hrs by modified MTT colorimetric assay; assay type: functional, organism-based
[4] = system: CHO; experiment: Cytotoxicity against CHO cells assessed as cell viability at 1 to 100 ug/ml after 48 hrs by MTT colorimetric assay; assay type: cell-based, Cricetulus griseus; settings: chinese hamster
[5] = system: Trypanosoma cruzi; experiment: Antitrypanosomal activity against epimastigote form of Trypanosoma cruzi Y after 72 hrs by modified MTT colorimetric assay; assay type: functional

SMILES | GI50 [1] | GI50 at 48 h [2] | further results
CC(=O)N1c2c(O)cccc2[C@]23CCN4CC[C@H](C[C@H]12)C1=CCO[C@]143 [GEISSOSPERMIDINE] | > 100 µg/mL |  | 
CC1CS(=O)(=O)CCN1/N=C/c1ccc([N+](=O)[O-])o1 (stereo not drawn) [NIFURTIMOX] |  | 13.9 µg/mL (≈ 48.4 µM) | 
COc1ccc2c(c1O)N(C(C)=O)[C@H]1C[C@@H]3CCN(C)CC[C@@]21C(=O)[C@]31O[C@H]1C | > 100 µg/mL |  | 
C/C=C1\C(=O)[C@@]23CCN(C)CC[C@H]1C[C@@H]2N(C(C)=O)c1c3ccc(OC)c1O | > 100 µg/mL |  | 
CCc1ccc2c3[nH]c4ccccc4c3cc[n+]2c1.[Cl-] [FLAVOPEREIRINE] |  |  | Activity [3]: Active; Activity [4]: Toxic
CCCC(=O)N1c2c(O)cccc2[C@]23CCN4CC[C@H](C[C@H]12)C1=CCO[C@]143 | 52.2 µg/mL (≈ 142 µM) |  | 
COc1cc(O)c2c(c1)[C@]13CCN4CC[C@H](C[C@@H]1N2C(C)=O)C1=CCO[C@]143 | > 100 µg/mL |  | 
CC[C@@]12CCCN3CC[C@]4(c5cccc(O)c5N(C(C)=O)[C@@H]4CC1)[C@H]32 | 7.7 µg/mL (≈ 22.6 µM) | 16.7 µg/mL (≈ 49.1 µM) | GI50 [5]: 41.7 µg/mL (≈ 122 µM)
C[C@@H]1[C@H](O)[C@@H](C)/C=C/C=C/C=C/C=C/C=C/C=C/C=C/[C@H](O[C@@H]2O[C@H](C)[C@@H](O)[C@H](N)[C@@H]2O)C[C@@H]2O[C@](O)(C[C@@H](O)C[C@@H](O)[C@H](O)CC[C@@H](O)C[C@@H](O)CC(=O)O[C@H]1C)C[C@H](O)[C@H]2C(=O)O [AMPHOTERICIN B] |  | 10.3 µg/mL (≈ 11.1 µM) | 
C/C=C1/C(=O)[C@@]23CCN(C)CC[C@H]1C[C@@H]2N(C(C)=O)c1c3ccc(OC)c1O | > 100 µg/mL |  | 
